Read-outs that look alike come from different tables or passages of the source.
Legend:
[1] = test system: HUVEC; assay: In vitro cell proliferation assay (MTT), HUVEC; format: cell-based; details: Homo sapiens, read-out: EC50, anti-proliferative activity
Experimental: (§1) 2) In Vitro Cell Proliferation Assays (Table 22 to Table 35)
(§2) Cancer cell lines (5×10^3 cells per well) or HUVEC (1×10^4 cells per well) or HRMEC (1×10^4 cells per well) were distributed in 96-well plates and incubating in duplicate with escalating concentrations (10 nM to 3 μM) of compounds for 72 hr. Cell proliferation was measured using MTT (3[4,5-dimethylthiazol-2-yl]-2,5-diphenyltetrazolium bromide).

[2] = test system: MDA-MB-231 cell line; assay: In vitro cell proliferation assay (MTT), MDA-MB-231; format: cell-based; details: Homo sapiens, read-out: EC50, anti-proliferative activity
Experimental: as §1, §2

[3] = test system: HepG2 cell line; assay: In vitro cell proliferation assay (MTT), HepG2; format: cell-based; details: Homo sapiens, read-out: EC50, anti-proliferative activity
Experimental: as §1, §2

[4] = test system: HeLa cell line; assay: In vitro cell proliferation assay (MTT), HeLa; format: cell-based; details: Homo sapiens, 72 hr, MTT, read-out: EC50, anti-proliferative activity
Experimental: as §1, §2

[5] = test system: A549 cell line; assay: In vitro cell proliferation assay (MTT), A549; format: cell-based; details: Homo sapiens, read-out: EC50, anti-proliferative activity
Experimental: as §1, §2

[6] = molecular target: T1, KDR (VEGFR2) (Homo sapiens, UniProt P35968); assay: In vitro kinase assay (Z'-LYTE), KDR (VEGFR2); format: biochemical; details: read-out: % of inhibition of the kinase compared to the control
T1 construct: purchased Invitrogen
Experimental: (§3) 1) In Vitro Kinase Assays (Table 10 to Table 21)
(§4) The inhibitory activity of the compounds on several kinases including BRAF, EGFR (ErbB1), EGFR (ErbB1) T790M L858R, FGFR2, KDR (VEGFR2), PDGFRA (PDGFR alpha), SRC and other was evaluated by Invitrogen using the Z′-LYTE® technology. Briefly, the Z′-LYTE® biochemical assay employs a fluorescence-based, coupled-enzyme format and is based on the differential sensitivity of phosphorylated and non-phosphorylated peptides to proteolytic cleavage. The peptide substrate is labeled with two fluorophores—one at each end—that make up a FRET pair. A ratiometric method, which calculates the ratio (the Emission Ratio) of donor emission to acceptor emission after excitation of the donor fluorophore at 400 nm, is used to quantitate reaction progress.
(§5) The compounds are screened in 1% DMSO (final) in the well. For 10 point titrations, 3-fold serial dilutions are conducted from the starting concentration. All Peptide/Kinase Mixtures are diluted to a 2× working concentration in the appropriate Kinase Buffer. All ATP Solutions are diluted to a 4× working concentration in Kinase Buffer (50 mM HEPES pH 7.5, 0.01% BRIJ-35, 10 mM MgCl2, 1 mM EGTA). ATP Km apparent is previously determined using a Z′-LYTE® assay.
(§6) Each compound was incubated at a concentration of 100 nM (excepted to test the activity against ABL and ABL T315I for which the compounds were incubated at a concentration of 10 μM) and the tables 10 to 21 summarize the results obtained showing the inhibitory power of a compound.

[7] = molecular target: T2, FGFR2 (Homo sapiens, UniProt P21802); assay: In vitro kinase assay (Z'-LYTE), FGFR2; format: biochemical; details: read-out: % of inhibition of the kinase compared to the control
T2 construct: purchased Invitrogen
Experimental: as §3, §4, §5, §6

[8] = molecular target: T3, PDGFRA (PDGFR alpha) (Homo sapiens, UniProt P16234); assay: In vitro kinase assay (Z'-LYTE), PDGFRA; format: biochemical; details: read-out: % of inhibition of the kinase compared to the control
T3 construct: purchased Invitrogen
Experimental: as §3, §4, §5, §6

[9] = molecular target: T4, SRC (Homo sapiens, UniProt P12931); assay: In vitro kinase assay (Z'-LYTE), SRC; format: biochemical; details: read-out: % of inhibition of the kinase compared to the control
T4 construct: purchased Invitrogen
Experimental: as §3, §4, §5, §6

[10] = molecular target: T5, EGFR (ErbB1) (Homo sapiens, UniProt P00533); assay: In vitro kinase assay (Z'-LYTE), EGFR (ErbB1); format: biochemical; details: read-out: % of inhibition of the kinase compared to the control
T5 construct: purchased Invitrogen
Experimental: as §3, §4, §5, §6

[11] = molecular target: T6, BRAF (Homo sapiens, UniProt P15056); assay: In vitro kinase assay (Z'-LYTE), BRAF; format: biochemical; details: read-out: % of inhibition of the kinase compared to the control
T6 construct: purchased Invitrogen
Experimental: as §3, §4, §5, §6

[12] = test system: HuH6 Clone 5 cell line; assay: In vitro cell proliferation assay (MTT), HuH6 Clone 5; format: cell-based; details: HUH-6-clone5; HuH6 Clone 5, 72 hr, MTT; read-out: EC50, anti-proliferative activity
Experimental: as §1, §2

[13] = test system: HuCCT1 cell line; assay: In vitro cell proliferation assay (MTT), HuCCT1; format: cell-based; details: Homo sapiens, HuCCT-1; HuCCT1, 72 hr, MTT; read-out: EC50, anti-proliferative activity
Experimental: as §1, §2

[14] = test system: HuH7 cell line; assay: In vitro cell proliferation assay (MTT), HuH7; format: cell-based; details: Homo sapiens, Huh-7; HuH7, 72 hr, MTT; read-out: EC50, anti-proliferative activity
Experimental: as §1, §2

[15] = test system: HT29 cell line; assay: In vitro cell proliferation assay (MTT), HT29; format: cell-based; details: Homo sapiens, HT-29; HT29, 72 hr, MTT; read-out: EC50, anti-proliferative activity
Experimental: as §1, §2

[16] = test system: H1975 cell line; assay: In vitro cell proliferation assay (MTT), H1975; format: cell-based; details: Homo sapiens, NCI-H1975; H1975, 72 hr, MTT; read-out: EC50, anti-proliferative activity
Experimental: as §1, §2

[17] = molecular target: T7, EGFR (ErbB1) T790M L858R (Homo sapiens, UniProt P00533, L858R/T790M); assay: In vitro kinase assay (Z'-LYTE), EGFR (ErbB1) T790M L858R; format: biochemical; details: read-out: % of inhibition of the kinase compared to the control
T7 construct: purchased Invitrogen
Experimental: as §3, §4, §5, §6

T5 sequence (P00533 25-1210): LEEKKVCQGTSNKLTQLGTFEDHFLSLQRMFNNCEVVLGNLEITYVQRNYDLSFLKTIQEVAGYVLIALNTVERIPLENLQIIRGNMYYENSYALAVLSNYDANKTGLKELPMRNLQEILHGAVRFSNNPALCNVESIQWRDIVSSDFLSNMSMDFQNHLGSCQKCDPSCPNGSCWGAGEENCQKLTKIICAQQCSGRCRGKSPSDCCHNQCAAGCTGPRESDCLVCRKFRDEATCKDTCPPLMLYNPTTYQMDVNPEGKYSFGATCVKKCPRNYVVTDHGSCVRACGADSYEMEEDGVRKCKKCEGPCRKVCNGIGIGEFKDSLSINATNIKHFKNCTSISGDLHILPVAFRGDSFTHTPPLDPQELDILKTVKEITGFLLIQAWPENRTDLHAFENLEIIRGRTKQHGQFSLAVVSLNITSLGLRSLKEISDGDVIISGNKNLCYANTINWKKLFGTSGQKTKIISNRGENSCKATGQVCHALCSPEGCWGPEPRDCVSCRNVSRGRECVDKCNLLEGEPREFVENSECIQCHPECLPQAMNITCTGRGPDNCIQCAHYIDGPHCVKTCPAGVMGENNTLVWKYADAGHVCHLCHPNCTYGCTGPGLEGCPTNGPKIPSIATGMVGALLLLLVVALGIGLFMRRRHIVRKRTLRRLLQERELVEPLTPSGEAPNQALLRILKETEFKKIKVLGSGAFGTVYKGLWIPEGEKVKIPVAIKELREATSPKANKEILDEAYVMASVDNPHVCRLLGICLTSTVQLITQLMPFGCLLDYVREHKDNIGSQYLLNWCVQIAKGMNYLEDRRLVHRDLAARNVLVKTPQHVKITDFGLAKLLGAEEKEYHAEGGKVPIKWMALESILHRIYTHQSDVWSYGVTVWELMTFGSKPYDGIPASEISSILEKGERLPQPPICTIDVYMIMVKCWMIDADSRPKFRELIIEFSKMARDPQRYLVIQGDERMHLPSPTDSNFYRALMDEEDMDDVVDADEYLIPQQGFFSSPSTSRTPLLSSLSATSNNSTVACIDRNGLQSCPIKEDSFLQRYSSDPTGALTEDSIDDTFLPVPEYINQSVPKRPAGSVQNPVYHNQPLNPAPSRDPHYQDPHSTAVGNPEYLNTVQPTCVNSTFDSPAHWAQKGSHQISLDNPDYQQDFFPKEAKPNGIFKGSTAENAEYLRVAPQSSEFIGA
T2 sequence (P21802 22-821): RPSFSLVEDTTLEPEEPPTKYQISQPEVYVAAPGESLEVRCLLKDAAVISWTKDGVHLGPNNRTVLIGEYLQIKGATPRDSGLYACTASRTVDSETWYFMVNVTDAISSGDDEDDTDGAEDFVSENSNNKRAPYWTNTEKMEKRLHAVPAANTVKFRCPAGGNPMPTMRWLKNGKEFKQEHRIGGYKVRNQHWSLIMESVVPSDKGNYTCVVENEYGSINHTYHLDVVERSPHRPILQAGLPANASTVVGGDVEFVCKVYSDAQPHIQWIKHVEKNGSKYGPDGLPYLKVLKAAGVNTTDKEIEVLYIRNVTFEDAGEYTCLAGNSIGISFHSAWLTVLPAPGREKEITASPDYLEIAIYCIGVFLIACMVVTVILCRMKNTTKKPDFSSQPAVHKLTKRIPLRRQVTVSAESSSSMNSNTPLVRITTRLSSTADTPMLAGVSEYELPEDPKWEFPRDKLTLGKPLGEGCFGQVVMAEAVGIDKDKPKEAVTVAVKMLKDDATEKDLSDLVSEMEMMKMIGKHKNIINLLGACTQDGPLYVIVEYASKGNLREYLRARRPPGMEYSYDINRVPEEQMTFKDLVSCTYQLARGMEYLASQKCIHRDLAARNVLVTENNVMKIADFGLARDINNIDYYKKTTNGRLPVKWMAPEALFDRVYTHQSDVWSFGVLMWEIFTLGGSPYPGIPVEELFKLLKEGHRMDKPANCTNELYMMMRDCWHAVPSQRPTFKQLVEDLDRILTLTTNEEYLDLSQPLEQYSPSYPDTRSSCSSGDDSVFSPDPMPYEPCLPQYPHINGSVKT
T6 sequence (P15056 whole entry): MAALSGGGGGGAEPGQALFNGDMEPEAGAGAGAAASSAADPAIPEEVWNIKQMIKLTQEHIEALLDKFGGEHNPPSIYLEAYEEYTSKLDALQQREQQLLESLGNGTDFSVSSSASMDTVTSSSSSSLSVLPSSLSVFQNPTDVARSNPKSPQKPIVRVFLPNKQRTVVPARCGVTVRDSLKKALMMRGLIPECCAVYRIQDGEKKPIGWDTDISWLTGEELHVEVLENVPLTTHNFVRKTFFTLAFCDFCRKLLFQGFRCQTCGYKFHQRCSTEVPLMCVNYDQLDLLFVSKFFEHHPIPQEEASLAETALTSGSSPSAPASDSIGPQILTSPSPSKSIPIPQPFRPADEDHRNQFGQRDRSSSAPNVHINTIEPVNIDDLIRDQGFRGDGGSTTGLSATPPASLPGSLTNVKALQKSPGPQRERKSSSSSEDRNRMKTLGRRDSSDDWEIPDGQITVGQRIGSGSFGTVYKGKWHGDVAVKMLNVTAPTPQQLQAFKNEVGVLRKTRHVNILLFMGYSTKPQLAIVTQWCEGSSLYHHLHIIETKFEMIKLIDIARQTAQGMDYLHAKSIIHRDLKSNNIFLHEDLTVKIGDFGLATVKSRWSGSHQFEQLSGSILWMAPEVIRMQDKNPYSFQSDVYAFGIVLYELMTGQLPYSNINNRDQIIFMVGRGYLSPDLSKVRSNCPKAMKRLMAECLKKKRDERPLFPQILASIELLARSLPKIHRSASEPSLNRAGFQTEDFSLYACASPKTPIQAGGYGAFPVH
T4 sequence (P12931 whole entry): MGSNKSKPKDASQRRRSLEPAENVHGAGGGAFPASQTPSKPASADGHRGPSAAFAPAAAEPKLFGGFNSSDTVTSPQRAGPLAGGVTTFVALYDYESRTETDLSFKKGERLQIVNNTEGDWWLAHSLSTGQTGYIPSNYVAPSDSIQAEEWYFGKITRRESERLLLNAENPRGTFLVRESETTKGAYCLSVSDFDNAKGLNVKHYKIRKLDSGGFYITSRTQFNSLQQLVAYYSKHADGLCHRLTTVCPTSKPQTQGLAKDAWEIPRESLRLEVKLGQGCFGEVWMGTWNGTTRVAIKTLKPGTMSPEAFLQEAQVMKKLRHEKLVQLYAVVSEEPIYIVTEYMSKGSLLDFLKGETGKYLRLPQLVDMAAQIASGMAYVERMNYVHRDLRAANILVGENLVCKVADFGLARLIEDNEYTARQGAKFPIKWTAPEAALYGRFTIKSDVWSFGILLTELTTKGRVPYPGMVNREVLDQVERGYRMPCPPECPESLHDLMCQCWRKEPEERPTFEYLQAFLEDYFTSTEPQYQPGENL
T3 sequence (P16234 24-1089): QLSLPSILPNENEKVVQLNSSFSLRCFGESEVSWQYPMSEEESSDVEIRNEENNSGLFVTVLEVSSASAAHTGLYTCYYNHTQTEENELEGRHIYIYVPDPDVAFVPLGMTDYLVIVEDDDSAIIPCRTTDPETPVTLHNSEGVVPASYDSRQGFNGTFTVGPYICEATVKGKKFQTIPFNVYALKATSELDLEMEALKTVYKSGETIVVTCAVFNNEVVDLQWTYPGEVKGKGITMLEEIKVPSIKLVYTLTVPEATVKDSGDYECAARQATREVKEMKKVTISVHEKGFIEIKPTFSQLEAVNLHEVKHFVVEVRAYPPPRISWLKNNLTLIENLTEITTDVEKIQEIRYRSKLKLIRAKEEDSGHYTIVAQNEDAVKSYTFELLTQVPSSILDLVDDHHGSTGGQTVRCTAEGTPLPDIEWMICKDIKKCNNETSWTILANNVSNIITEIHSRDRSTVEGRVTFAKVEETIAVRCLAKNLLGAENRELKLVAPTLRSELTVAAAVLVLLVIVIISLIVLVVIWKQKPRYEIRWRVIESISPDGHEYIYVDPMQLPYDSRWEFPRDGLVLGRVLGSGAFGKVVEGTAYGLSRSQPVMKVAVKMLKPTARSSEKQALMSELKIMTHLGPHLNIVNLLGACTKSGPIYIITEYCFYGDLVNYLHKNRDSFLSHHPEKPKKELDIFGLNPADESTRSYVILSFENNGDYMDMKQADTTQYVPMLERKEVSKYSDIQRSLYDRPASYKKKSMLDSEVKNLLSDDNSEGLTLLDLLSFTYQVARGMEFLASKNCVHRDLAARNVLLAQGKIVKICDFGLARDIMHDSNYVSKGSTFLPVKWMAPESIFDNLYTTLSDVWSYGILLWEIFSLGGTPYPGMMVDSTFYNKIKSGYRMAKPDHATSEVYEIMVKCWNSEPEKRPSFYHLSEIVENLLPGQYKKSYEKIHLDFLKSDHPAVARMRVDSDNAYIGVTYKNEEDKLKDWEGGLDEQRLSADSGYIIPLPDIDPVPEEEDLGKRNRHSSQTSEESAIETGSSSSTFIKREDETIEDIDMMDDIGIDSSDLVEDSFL

Compound	EC50 ([3]; HepG2, 72 hr, MTT)	EC50 [4]	EC50 ([5]; A549, 72 hr, MTT)	inhibition at 0.1 µM [6]	inhibition at 0.1 µM [7]	inhibition at 0.1 µM [8]	inhibition at 0.1 µM [9]	inhibition at 0.1 µM [10]	inhibition at 0.1 µM [11]	EC50 ([1]; 72 hr, MTT)	other results
CC(=O)c1cc2cc(NCc3cc(NC(=O)C4CCC(C(F)(F)F)CC4)ccc3F)cnc2[nH]1 (stereo not drawn) [OR1058, 4-Trifluoromethyl-cyclohexanecarboxylic acid {3-[(2-acetyl-1H-pyrrolo[2,3-b]pyridin-5-ylamino)-methyl]-4-fluoro-phenyl}-amide]	≥ 1 µM	≥ 1 µM	≥ 1 µM	–	–	–	–	–	–	≥ 1 µM	EC50 ([2]; MDA-MB-231, 72 hr, MTT): ≥ 1 µM
CC(=O)c1cc2cc(NC(=O)c3cccc(CNC(=S)c4cccc(C(F)(F)F)c4)c3)cnc2[nH]1 [OR1012, N-[3-(2-Acetyl-1H-pyrrolo[2,3-b]pyridin-5-ylcarbamoyl)-benzyl]-3-trifluoromethyl-thiobenzamide]	≥ 1 µM	≥ 1 µM	≥ 1 µM	< 50%	< 50%	< 50%	< 50%	< 50%	< 50%	≥ 1 µM	EC50 ([2]; MDA-MB-231, 72 hr, MTT): ≥ 1 µM
CNC(=O)c1cc(Oc2ccc(NC(=O)Nc3ccc(Cl)c(C(F)(F)F)c3)cc2)ccn1 [Sorafenib, reference compound]	1 to 3 µM	–	–	–	–	–	–	–	–	–	EC50 [12]: 1 to 3 µM; EC50 [13]: 1 to 3 µM; EC50 [14]: 1 to 3 µM
CC(=O)c1cc2cc(NCc3cc(NC(=O)c4cc(-n5cnc(C)c5)cc(C(F)(F)F)c4)ccc3C)cnc2[nH]1 [OR0719, N-{3-[(2-Acetyl-1H-pyrrolo[2,3-b]pyridin-5-ylamino)-methyl]-4-methyl-phenyl}-3-(4-methyl-imidazol-1-yl)-5-trifluoromethyl-benzamide]	–	–	–	< 50%	< 50%	< 50%	≥ 50%	< 50%	≥ 50%	–	inhibition at 0.1 µM [17]: < 50%

Further lines, with some results ahead:

EC50 ([3]; HepG2, 72 hr, MTT)	EC50 [4]	EC50 ([5]; A549, 72 hr, MTT)	inhibition at 0.1 µM [6]	inhibition at 0.1 µM [7]	inhibition at 0.1 µM [8]	inhibition at 0.1 µM [9]	inhibition at 0.1 µM [10]	inhibition at 0.1 µM [11]	Compound	EC50 ([1]; 72 hr, MTT)	other results
–	–	≥ 1 µM	< 50%	< 50%	≥ 50%	< 50%	< 50%	< 50%	CC(=O)c1cc2cc(NC(=O)c3cc(NC(=O)c4ccc(CN5CCN(C)CC5)cc4)ccc3C)cnc2[nH]1 [OR0780, N-(2-Acetyl-1H-pyrrolo[2,3-b]pyridin-5-yl)-2-methyl-5-[4-(4-methyl-piperazin-1-ylmethyl)-benzoylamino]-benzamide]	≥ 1 µM	EC50 [15]: ≥ 1 µM; EC50 [16]: ≥ 1 µM; inhibition at 0.1 µM [17]: < 50%
–	≥ 1 µM	–	–	–	–	–	–	–	CC(=O)c1cc2cc(NCc3cc(NC(=O)c4cc(N5CCN(C)CC5)cc(C(F)(F)F)c4)ccc3F)cnc2[nH]1 [OR1060, N-{3-[(2-Acetyl-1H-pyrrolo[2,3-b]pyridin-5-ylamino)-methyl]-4-fluoro-phenyl}-3-(4-methyl-piperazin-1-yl)-5-trifluoromethyl-benzamide]	–	EC50 ([1]; 72 h): 0.1 to 1 µM; EC50 ([2]; MDA-MB-231, 72 h): 0.1 to 1 µM; EC50 ([3]; HepG2, 72 h): ≤ 0.1 µM; EC50 ([5]; A549, 72 h): 0.1 to 1 µM
≥ 1 µM	–	–	–	–	–	–	–	–	Cc1nc(Nc2ncc(C(=O)Nc3c(C)cccc3Cl)s2)cc(N2CCN(CCO)CC2)n1 [Dasatinib, reference compound]	–	EC50 [13]: ≥ 1 µM
